In data set [1] the target is full-length FLAG-tagged B-Raf(V600E) (Homo sapiens (Human), UniProt P15056, V600E). As to the kind of experiment: BRAF V600E enzyme assay (TR-FRET competitive displacement). Format: binding. Put shortly: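 TR-FRET tracer competition: compound (top dose 10 μM, 3-fold, 11 points) incubated 60 min at ambient temperature with FLAG-tagged full-length B-Raf(V600E) (5 nM), Eu anti-FLAG cryptate (0.5 nM) and tracer (50 nM), pH 7.4 HEPES/MgCl2 buffer. 665/615 ratio converted to percent of control; IC50 where fitted curve crosses 50 POC.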
full-length FLAG-tagged B-Raf(V600E), sequence (P15056 whole entry V600E): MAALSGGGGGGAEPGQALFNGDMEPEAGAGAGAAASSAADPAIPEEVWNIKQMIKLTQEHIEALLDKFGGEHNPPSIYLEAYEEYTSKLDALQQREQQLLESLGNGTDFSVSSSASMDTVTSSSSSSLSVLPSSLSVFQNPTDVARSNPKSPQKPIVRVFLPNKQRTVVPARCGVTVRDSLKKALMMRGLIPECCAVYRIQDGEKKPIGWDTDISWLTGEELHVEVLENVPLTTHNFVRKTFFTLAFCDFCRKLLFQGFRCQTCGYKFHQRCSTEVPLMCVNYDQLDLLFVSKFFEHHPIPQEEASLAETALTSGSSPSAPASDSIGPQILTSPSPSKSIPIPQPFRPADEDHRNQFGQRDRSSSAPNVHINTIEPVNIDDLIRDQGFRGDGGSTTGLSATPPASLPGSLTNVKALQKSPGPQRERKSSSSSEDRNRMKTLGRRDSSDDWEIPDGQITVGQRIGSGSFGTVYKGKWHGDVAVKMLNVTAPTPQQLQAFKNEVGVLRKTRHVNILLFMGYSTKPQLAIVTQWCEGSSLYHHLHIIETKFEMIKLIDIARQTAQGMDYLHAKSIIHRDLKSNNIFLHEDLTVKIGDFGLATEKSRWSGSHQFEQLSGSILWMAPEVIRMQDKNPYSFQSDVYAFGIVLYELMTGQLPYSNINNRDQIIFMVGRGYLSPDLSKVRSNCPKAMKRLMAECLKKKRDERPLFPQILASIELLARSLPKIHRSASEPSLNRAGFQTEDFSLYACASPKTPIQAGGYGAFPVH
(TR-FRET usually uses a lanthanide donor and a delayed reading to cut background.)

Data set [2] relates to A375 cells. As to the kind of experiment: Cellular phospho-ERK inhibition assay in A375 cells. As to conditions: Homo sapiens, A-375, A375 cells (head prints A357), 2 hours treatment, read-out: A357 cell IC50. It is filed as cell-based. The method, boiled down: (§1)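 In Cell Western detection of phospho-ERK1/2 (Thr202/Tyr204) over GAPDH after 2 h compound exposure (66 pM to 10 μM, 9 points, 0.25% DMSO) of A375 cells in DMEM or H1755 cells in RPMI, both with 10% FBS. Percent of control set by DMSO and 10 μM binimetinib; 4-parameter IC50.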

Data set [3] deals with H1755 cells. As to the kind of experiment: Cellular phospho-ERK inhibition assay in H1755 cells. It is filed as cell-based. As to conditions: Homo sapiens, NCI-H1755, 2 hours treatment, read-out: H1755 Cell IC50. Put shortly: as §1
The nature of data set [4]: MDR1 LLC-PK1 and BCRP MDCKII permeability assay: permeability coefficient (Papp). Format: in vitro ADME. From the text: (§2) Final organic concentration in the assay was 1%.
Data set [5] has as its target P-gp (MDR1) (Homo sapiens (Human), UniProt P08183). As to the kind of experiment: MDR1 LLC-PK1 permeability assay: efflux ratio. Format: in vitro ADME. The conditions noted are these: pig.
From the text: as §2

The target in data set [6] is BCRP (Homo sapiens (Human), UniProt Q9UNQ0). As to the kind of experiment: BCRP MDCKII permeability assay: efflux ratio. It is filed as in vitro ADME. The conditions noted are these: dog.
BCRP, sequence (Q9UNQ0 whole entry): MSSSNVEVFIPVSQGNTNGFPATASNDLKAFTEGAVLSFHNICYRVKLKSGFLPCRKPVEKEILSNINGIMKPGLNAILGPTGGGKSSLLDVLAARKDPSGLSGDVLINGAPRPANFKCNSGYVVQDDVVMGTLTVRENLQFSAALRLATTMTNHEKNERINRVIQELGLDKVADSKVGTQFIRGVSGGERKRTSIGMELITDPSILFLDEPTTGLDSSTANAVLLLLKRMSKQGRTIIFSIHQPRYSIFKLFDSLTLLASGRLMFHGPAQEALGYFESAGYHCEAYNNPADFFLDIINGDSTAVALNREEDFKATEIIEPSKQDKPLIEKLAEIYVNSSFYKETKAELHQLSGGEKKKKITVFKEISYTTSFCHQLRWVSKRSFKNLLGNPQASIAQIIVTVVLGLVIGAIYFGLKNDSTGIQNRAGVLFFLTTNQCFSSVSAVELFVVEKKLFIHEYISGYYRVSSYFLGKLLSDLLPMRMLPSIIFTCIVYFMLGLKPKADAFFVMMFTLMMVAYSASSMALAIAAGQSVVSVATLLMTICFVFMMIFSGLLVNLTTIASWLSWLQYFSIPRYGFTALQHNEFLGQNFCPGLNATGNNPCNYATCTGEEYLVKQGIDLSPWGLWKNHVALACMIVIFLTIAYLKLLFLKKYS
Method: BCRP transfected MDCKII cells were cultured and plated according to manufacturer's recommendations. Assay conditions included with and without the BCRP-specific inhibitor, KO143, at a concentration of 0.3 μM to ascertain the contribution of BCRP to the efflux value of the test compound.
Both positive and negative controls were used to assess functionality of P-gp or BCRP efflux in the assays. […] Final organic concentration in the assay was 1%. All dosing solutions contained 10 μM lucifer yellow to monitor LLC-PK1 or MDCKII cell monolayer integrity.
For the apical to basolateral determination (A to B), 75 μL of the test article in transport buffer were added to the apical side of the individual transwells and 250 μL of basolateral media, without compound or lucifer yellow, were added to each well. For the basolateral to apical determination (B to A), 250 μL of test article in transport buffer were added to each well and 75 μL transport buffer, without compound or lucifer yellow, were added to each transwell. All tests were performed in triplicate, and each compound was tested for both apical to basolateral and basolateral to apical transport. The plates were incubated for 2 hours on a Lab-Line Instruments Titer Orbital Shaker (VWR, West Chester, PA) at 50 rpm and 37° C. with 5% CO2. All culture plates were removed from the incubator and 50 μL of media were removed from the apical and basolateral portion of each well and added to 150 μL of 1 μM labetalol in 2:1 acetonitrile (acetonitrile): H2O, v/v.
These values were accepted when found to be below 2% for apical to basolateral and 5% basolateral to apical flux across the MDR1-transfected LLC-PK1 or BCRP-transfected MDCKII cell monolayers. The plates were sealed and the contents of each well analyzed by LC-MS/MS. The compound concentrations were determined from the ratio of the peak areas of the compound to the internal standard (labetalol) in comparison to the dosing solution.
The LC-MS/MS system was comprised of an HTS-PAL autosampler (Leap Technologies, Carrboro, NC), an HP1200 HPLC (Agilent, Palo Alto, CA), and a MDS Sciex 4000 Q Trap system (Applied Biosystems, Foster City, CA). […] The total run time, including re-equilibration, for a single injection was 1.2 minutes. Mass spectrometric detection of the analytes was accomplished using the ion spray positive mode.
An efflux ratio is calculated from the mean apical to basolateral (A-B) Papp data and basolateral to apical (B-A) Papp data using the following equation: Efflux ratio=Papp(B-A)/Papp(A-B)
[7] abbreviates: averaged IC50, TR-FRET tracer displacement, 60 min.

Where a name gives a salt, the structure may show the parent alone. Read-outs that look alike come from different tables or passages of the source.

P-gp (MDR1), sequence (P08183 whole entry, species assumed): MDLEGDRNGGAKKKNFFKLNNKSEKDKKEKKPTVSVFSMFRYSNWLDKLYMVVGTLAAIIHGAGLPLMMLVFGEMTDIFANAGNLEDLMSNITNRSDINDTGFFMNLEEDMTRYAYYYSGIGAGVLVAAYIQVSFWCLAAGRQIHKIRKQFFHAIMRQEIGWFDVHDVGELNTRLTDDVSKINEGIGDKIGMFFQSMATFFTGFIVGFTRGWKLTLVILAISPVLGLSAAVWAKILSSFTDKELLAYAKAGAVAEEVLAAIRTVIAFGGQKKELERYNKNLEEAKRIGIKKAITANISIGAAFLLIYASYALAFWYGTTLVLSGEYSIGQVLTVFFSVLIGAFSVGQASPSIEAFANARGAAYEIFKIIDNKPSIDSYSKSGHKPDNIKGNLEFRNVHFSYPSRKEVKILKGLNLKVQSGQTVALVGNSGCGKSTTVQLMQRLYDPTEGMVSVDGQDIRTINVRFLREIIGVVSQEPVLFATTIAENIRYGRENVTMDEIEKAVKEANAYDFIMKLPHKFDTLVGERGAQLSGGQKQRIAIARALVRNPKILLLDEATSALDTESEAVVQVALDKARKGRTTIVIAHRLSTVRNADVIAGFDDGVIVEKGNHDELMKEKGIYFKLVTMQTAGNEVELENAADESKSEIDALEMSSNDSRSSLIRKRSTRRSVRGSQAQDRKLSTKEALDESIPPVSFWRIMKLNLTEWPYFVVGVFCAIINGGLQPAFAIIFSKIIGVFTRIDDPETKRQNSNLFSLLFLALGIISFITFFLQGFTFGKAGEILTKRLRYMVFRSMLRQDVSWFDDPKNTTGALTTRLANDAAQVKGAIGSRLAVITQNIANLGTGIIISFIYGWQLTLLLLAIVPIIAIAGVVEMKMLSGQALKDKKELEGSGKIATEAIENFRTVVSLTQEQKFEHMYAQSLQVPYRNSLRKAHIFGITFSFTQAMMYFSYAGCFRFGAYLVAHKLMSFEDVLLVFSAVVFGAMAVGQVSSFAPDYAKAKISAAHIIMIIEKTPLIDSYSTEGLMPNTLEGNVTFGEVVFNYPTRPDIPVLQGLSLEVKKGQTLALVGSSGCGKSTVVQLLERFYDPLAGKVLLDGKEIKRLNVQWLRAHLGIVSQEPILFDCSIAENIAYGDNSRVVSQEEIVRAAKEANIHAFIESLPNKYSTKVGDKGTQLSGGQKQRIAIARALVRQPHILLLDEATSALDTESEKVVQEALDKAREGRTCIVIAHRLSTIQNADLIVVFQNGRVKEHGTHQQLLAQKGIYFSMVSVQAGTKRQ

The IC50 is the concentration at which inhibition is half-maximal. What is called Papp is a coefficient for how fast a substance crosses the barrier. High values mean fast passage, low ones slow passage. By efflux ratio is commonly meant the permeability from basolateral to apical divided by that in the opposite direction, in the common usage. As for `Cn1cnc2ccc(Oc3c(F)ccc(NS(=O)(=O)N4CC[C@@H](OC(F)F)C4)c3Cl)c(F)c2c1=O` [Example 66, (R)-N-(2-chloro-4-fluoro-3-((5-fluoro-3-methyl-4-oxo-3,4-dihydroquinazolin-6-yl)oxy)phenyl) 3-(difluoromethoxy)pyrrolidine-1-sulfonamide], the results for the IC50 in data set [1], in data set [2] and in data set [3] were 4 nM, 6 nM and 44 nM, respectively. The Papp at 2 h, 1 µM in data set [4] was 25 ×10⁻⁶ cm/s. For the same compound, the efflux ratio at 2 h, 1 µM in data set [5] came to 2.2; in data set [6], 3.1.

Regarding `Cn1cnc2ccc(Oc3c(F)ccc(NS(=O)(=O)N4CC5CC4C5)c3Cl)c(Cl)c2c1=O` [Example 67, N-(2-chloro-3-((5-chloro-3-methyl-4-oxo-3,4-dihydroquinazolin-6-yl)oxy)-4-fluorophenyl)-2-azabicyclo[2.1.1]hexane-2-sulfonamide], the IC50 amounted to 2 nM in data set [1], 8 nM in data set [2] and 76 nM in data set [3]. In data set [4], this compound had an apparent permeability (Papp) at 2 h, 1 µM of 24 ×10⁻⁶ cm/s. Further, the efflux ratio at 2 h, 1 µM in data set [5] was found to be 1.4; in data set [6] it was 1.

`CCN(C)S(=O)(=O)Nc1ccc(F)c(Oc2ccc3ncn(C)c(=O)c3c2C)c1Cl` [Example 68, 6-(2-Chloro-3-{[ethyl(methyl)sulfamoyl]amino}-6-fluorophenoxy)-3,5-dimethyl-3,4 dihydroquinazolin-4-one]: the IC50 in data set [1] was 21 nM; in data set [2] it was 64 nM; in data set [3] it was 286 nM. Further, the apparent permeability coefficient (Papp) at 2 h, 1 µM in data set [4] stood at 25 ×10⁻⁶ cm/s. The efflux ratio at 2 h, 1 µM in data set [5] was found to be 0.7; in data set [6] it was 1.

In the case of `Cc1c(Oc2c(F)ccc(NS(=O)(=O)N3CCCC3)c2Cl)ccc2ncn(C)c(=O)c12` [Example 69, N-(2-chloro-3-((3,5-dimethyl-4-oxo-3,4-dihydroquinazolin-6-yl)oxy)-4-fluorophenyl)pyrrolidine-1-sulfonamide], the IC50 in data set [1] stood at 7 nM; in data set [2], 22 nM; in data set [3], 88 nM. The Papp at 2 h, 1 µM in data set [4] amounted to 25 ×10⁻⁶ cm/s. Further, the efflux ratio at 2 h, 1 µM in data set [5] is 0.8; in data set [6] it was 0.9.

As for `Cc1c(Nc2c(F)ccc(NS(=O)(=O)N(C)C)c2Cl)ccc2ncn(C)c(=O)c12` [Example 71, N-(2-chloro-3-((3,5-dimethyl-4-oxo-3,4-dihydroquinazolin-6-yl)amino)-4-fluorophenyl)-(N,N-dimethyl)-sulfamide], the IC50 in data set [1] (setting [7]) came to 301 nM; in data set [2], 69 nM; in data set [3], 161 nM. In data set [4], this compound returned an apparent permeability (Papp) at 2 h, 1 µM of 40 ×10⁻⁶ cm/s. For the same compound, the efflux ratio at 2 h, 1 µM in data set [5] was determined as 1.2; in data set [6], 0.9.

Take `CN(C)S(=O)(=O)Nc1ccc(F)c(Nc2ccc3ncn(C)c(=O)c3c2F)c1Cl` [Example 83, N-(2-chloro-4-fluoro-3-((5-fluoro-3-methyl-4-oxo-3,4-dihydroquinazolin-6-yl)amino)phenyl)-(N.N-dimethyl)-sulfamide]: the IC50 in data set [1] (setting [7]) turned out to be 67 nM; in data set [2] it was 31 nM; in data set [3], 155 nM. The Papp at 2 h, 1 µM in data set [4] came out at 32 ×10⁻⁶ cm/s. For the same compound, the efflux ratio at 2 h, 1 µM in data set [5] turned out to be 2.2; in data set [6], 1.9.

In the case of `Cc1c(Nc2c(F)ccc(NS(=O)(=O)N3CC[C@H](F)C3)c2Cl)ccc2ncn(C)c(=O)c12` [Example 86, (S)-N-(2-chloro-3-((3,5-dimethyl-4-oxo-3,4-dihydroquinazolin-6-yl)amino)-4-fluorophenyl)-3-fluoropyrrolidine-1-sulfonamide trifluoroacetate], the values for the IC50 in data set [1] (setting [7]), in data set [2] and in data set [3] were 42 nM, 34 nM and 182 nM, respectively. Also, the Papp at 2 h, 1 µM in data set [4] was found to be 28 ×10⁻⁶ cm/s. Besides, the efflux ratio at 2 h, 1 µM in data set [5] amounted to 1.9; in data set [6], 1.6.

Regarding `Cc1c(Nc2c(F)ccc(NS(=O)(=O)N3CC4CC3C4)c2Cl)ccc2ncn(C)c(=O)c12` [Example 87, N-(2-chloro-3-((3,5-dimethyl-4-oxo-3,4-dihydroquinazolin-6-yl)amino)-4-fluorophenyl)-2-azabicyclo[2.1.1]hexane-2-sulfonamide trifluoroacetate], the IC50 in data set [1] (setting [7]) was 33 nM; in data set [2] it was 73 nM; in data set [3] it was 215 nM. Moreover, in data set [4], the apparent permeability coefficient (Papp) at 2 h, 1 µM is 21 ×10⁻⁶ cm/s. Moreover, the efflux ratio at 2 h, 1 µM in data set [5] turned out to be 1; in data set [6] it was 0.6.

Take `Cc1c(Nc2c(F)ccc(NS(=O)(=O)N3CC[C@@H](OC(F)F)C3)c2Cl)ccc2ncn(C)c(=O)c12` [Example 89]: the IC50 in data set [1] (setting [7]) came to 14 nM; in data set [2] it was 50 nM; in data set [3], 173 nM. This compound yielded a Papp at 2 h, 1 µM in data set [4] of 21 ×10⁻⁶ cm/s. Further, the values for the efflux ratio at 2 h, 1 µM in data set [5] and in data set [6] were 1.3 and 1, respectively.

Regarding `Cc1c(Nc2c(F)ccc(NS(=O)(=O)N3C[C@@H](F)[C@@H](F)C3)c2Cl)ccc2ncn(C)c(=O)c12` [Example 90, (cis)-N-(2-chloro-3-((3,5-dimethyl-4-oxo-3,4-dihydroquinazolin-6-yl)amino)-4-fluorophenyl)-3,4-difluoropyrrolidine-1-sulfonamide], the half-inhibitory concentration (IC50) in data set [1] (setting [7]) was found to be 9 nM; in data set [2], 49 nM; in data set [3] it was 127 nM. For the same compound, the Papp at 2 h, 1 µM in data set [4] turned out to be 31 ×10⁻⁶ cm/s. Besides, the efflux ratio at 2 h, 1 µM in data set [5] was found to be 2.3; in data set [6] it was 3.5.

On to `Cc1c(Nc2c(F)ccc(NS(=O)(=O)N3CC4CC4C3)c2Cl)ccc2ncn(C)c(=O)c12` (stereo not drawn) [Example 92, N-(2-chloro-3-((3,5-dimethyl-4-oxo-3,4-dihydroquinazolin-6-yl)amino)-4-fluorophenyl)-3-azabicyclo[3.1.0]hexane-3-sulfonamide], for which the IC50 is 8 nM in data set [1] (setting [7]), 36 nM in data set [2] and 35 nM in data set [3]. In data set [4], the Papp at 2 h, 1 µM amounted to 22 ×10⁻⁶ cm/s. Moreover, the efflux ratio at 2 h, 1 µM in data set [5] turned out to be 1.2; in data set [6] it was 1.9.

For `Cc1c(Nc2c(F)ccc(NS(=O)(=O)N3CCC(F)(F)C3)c2Cl)ccc2ncn(C)c(=O)c12` [Example 93, N-(2-chloro-3-((3,5-dimethyl-4-oxo-3,4-dihydroquinazolin-6-yl)amino)-4-fluorophenyl)-3,3-difluoropyrrolidine-1-sulfonamide], the IC50 in data set [1] (setting [7]) amounted to 3 nM; in data set [2], 60 nM; in data set [3] it was 195 nM. The compound also showed a Papp at 2 h, 1 µM in data set [4] of 33 ×10⁻⁶ cm/s. In addition, the figures for the efflux ratio at 2 h, 1 µM in data set [5] and in data set [6] were 1.4 and 0.8, respectively.

For the compound `CCC1CCN(S(=O)(=O)Nc2ccc(F)c(Nc3ccc4ncn(C)c(=O)c4c3Cl)c2Cl)C1` (stereo not drawn) [Example 94, N-(2-chloro-3-((5-chloro-3-methyl-4-oxo-3,4-dihydroquinazolin-6-yl)amino)-4-fluorophenyl)-3-ethylpyrrolidine-1-sulfonamide trifluoroacetate], the results for the 50% inhibitory concentration (IC50) in data set [1] (setting [7]), in data set [2] and in data set [3] were 20 nM, 138 nM and 281 nM, respectively. The compound further had a Papp at 2 h, 1 µM in data set [4] of 22 ×10⁻⁶ cm/s. For the same compound, the efflux ratio at 2 h, 1 µM came to 0.9 in data set [5] and 1.7 in data set [6].

With `Cc1c(Nc2c(F)c(F)cc(NS(=O)(=O)N3C[C@@H](F)[C@@H](F)C3)c2Cl)ccc2ncn(C)c(=O)c12` [Example 95, cis-N-(2-chloro-3-((3,5-dimethyl-4-oxo-3,4-dihydroquinazolin-6-yl)amino)-4,5-difluorophenyl)-3,4-difluoropyrrolidine-1-sulfonamide], the results for the IC50 in data set [1] (setting [7]), in data set [2] and in data set [3] were 2 nM, 111 nM and 796 nM, respectively. In data set [4], the Papp at 2 h, 1 µM is 25 ×10⁻⁶ cm/s. Moreover, the efflux ratio at 2 h, 1 µM in data set [5] was determined as 2.7; in data set [6] it was 6.8.

Turning to `Cc1c(Nc2c(F)c(F)cc(NS(=O)(=O)N3CCCC3)c2Cl)ccc2ncn(C)c(=O)c12` [Example 96, N-(2-chloro-3-((3,5-dimethyl-4-oxo-3,4-dihydroquinazolin-6-yl)amino)-4,5-difluorophenyl)pyrrolidine-1-sulfonamide], the figures for the concentration for half-maximal inhibition (IC50) in data set [1] (setting [7]), in data set [2] and in data set [3] were 3 nM, 40 nM and 586 nM, respectively. In addition, the Papp at 2 h, 1 µM in data set [4] amounted to 27 ×10⁻⁶ cm/s. The figures for the efflux ratio at 2 h, 1 µM in data set [5] and in data set [6] were 1.2 and 1.1, respectively.

With `CCN(C)S(=O)(=O)Nc1cc(F)c(F)c(Nc2ccc3ncn(C)c(=O)c3c2C)c1Cl` [Example 97, N-(2-chloro-3-((3,5-dimethyl-4-oxo-3,4-dihydroquinazolin-6-yl)amino)-4,5-difluorophenyl)-(N-ethyl-N-methyl)-sulfamide], the IC50 came to 10 nM in data set [1] (setting [7]), 88 nM in data set [2] and 610 nM in data set [3]. This compound also registered a Papp at 2 h, 1 µM in data set [4] of 30 ×10⁻⁶ cm/s. The efflux ratio at 2 h, 1 µM in data set [5] stood at 0.9; in data set [6], 1.8.

The values are drawn from patent US12303509B2, “Compounds for the treatment of BRAF-associated diseases and disorders” (Pfizer Inc., priority 2020, dated 2025).
